The text below walks through data of patent US20150065456A1, “AGENT FOR TREATMENT AND PREVENTION OF CANCER” (Daiichi Sankyo Company, Limited, priority 2013, published 2015).

Where two headings read alike, the source gives them in different places.

For data set [1], the system named is subjects with symptomatic venous thromboembolism (VTE). Kind of data set: Hokusai VTE phase 3 clinical study: investigator-reported malignancies clinically evident post-randomization. The following applies: for All Subjects with a Malignancy Event, HR: edoxaban vs warfarin, Cox proportional hazards model. The data set is classed as in vivo, human. The protocol:
The study was a randomized, double-blind, clinical study, in which subjects with symptomatic venous thromboembolism (VTE), which included PE, with or without deep venous thrombosis (DVT), or DVT only, were treated with either edoxaban or warfarin, a Vitamin K antagonist, which is an indirect inhibitor of coagulation. […] The subjects participating in the study were adult male and female patients presenting with acute, symptomatic DVT involving popliteal, femoral, or ileac veins, or PE requiring anti-thrombotic therapy. Patients with various types of cancer were among the subjects who were treated in this study, so long as long term treatment with heparin was not anticipated as a treatment regimen for such patients. This clinical study is named Hokusai-VTE and is the largest single phase 3 clinical study in the treatment and prevention of recurrence of VTE using an FXa inhibitor such as edoxaban. More than 8,250 patients were enrolled in the study from more than 400 clinical sites across 38 countries worldwide. The Hokusai-VTE clinical study was designed to reflect clinical practice, using a standard heparin lead-in and providing a flexible treatment duration of three, six or twelve months. This study design allowed the evaluation of patients with a broad range of risks, including patients with moderate or severe conditions of PE and DVT. […] (See, Example 1, infra).
The study (Hokusai VTE Clinical Study) constituted a phase 3, randomized, double-blind, double-dummy, parallel-group, multi-center, multi-national study for the evaluation of efficacy and safety of (LMW) heparin/edoxaban versus (LMW) heparin/warfarin in subjects with symptomatic deep-vein thrombosis and/or pulmonary embolism. The study indication related to the reduction of the risk of symptomatic recurrent venous thromboembolic complications in patients with acute symptomatic deep vein thrombosis (DVT) and/or pulmonary embolism (PE). […] Accordingly, the nature of the study was the use of edoxaban as direct inhibitor of Factor Xa in the treatment of VTE.
Following stratification and treatment allocation as described above, all patients were randomized to either a standard of care (SOC) treatment regimen, i.e., heparin+warfarin, until the international normalized ratio (INR) was between 2-3, followed by warfarin alone; or an edoxaban treatment regimen, i.e., heparin for 5 days followed by edoxaban (as the free base) at a dose of 60-mg QD (or 30-mg QD, in the low exposure group). This study aimed to treat all patients for the entire 12 month period following randomization. Ultimately, the evolving nature of the patient's clinical status and changes in the risk/benefit over time determined the length of treatment for a given patient. Irrespective of actual treatment duration, all patients were followed for the entire 12 months after randomization.
Edoxaban was administered in 30 and 60 mg dose-strengths in tablet form. Warfarin was administered in 1, 2.5 and 5 mg dose-strengths. Matching placebos were used for each of the test drugs. Edoxaban and warfarin were administered orally (PO). Enoxaparin was administered by subcutaneous (SC) injection.
The study was an event-driven, Phase 3, multi-national, multi-center, randomized, double-blind, matching placebo, parallel-group non-inferiority study for efficacy. The total study period after randomization was 12 months in duration. Ideally, all subjects remained on study treatment throughout this period. However, mitigating factors related to the subject's clinical status could influence the total duration of treatment a given subject actually received (See, Treatment Arms, below). Nevertheless, all subjects were administered a minimum of three months' treatment consistent with current ACCP Guidelines.

For data set [2] the following is noted: monkeys; cited from earlier work.
For data set [3] the following is noted: rats; cited from earlier work.
For data set [4] the following is noted: cited from earlier work.
Setting [5] is: Overall Study Period (up to 12 months).

Take `CN1CCc2nc(C(=O)N[C@@H]3C[C@@H](C(=O)N(C)C)CC[C@@H]3NC(=O)C(=O)Nc3ccc(Cl)cn3)sc2C1` [Edoxaban]: the “Kaplan-Meier cumulative incidence (%) of new or recurrent malignancies versus warfarin-treated subjects” value is on record as “significant decrease” in data set [1] (FIG. 1, treatment +30 days study period, 390 days from initial study drug administration) and “significant decrease” in data set [1] (FIG. 2, overall study period, about 360 days from initial study drug administration). Further, the results for the “All Subjects with a Malignancy Event, (%)” value (from here on “All Subjects … (%)”) in data set [1] (On-Treatment Study Period), in data set [1] (setting [5]) and in data set [1] (Treatment+30 Days Study Period) were “(1.6) %”, “(2.8) %” and “(2.4) %”, respectively. In addition, the “Leukemia, Lymphoma, and Other Blood Malignancies, (%)” value (“Leukemia, Lymphoma … (%)” for short) in data set [1] (On-Treatment Study Period) is on record as “(<0.1) %”; in data set [1] (setting [5]), “(0.2) %”; in data set [1] (Treatment+30 Days Study Period) it was “(0.1) %”. The results for the “Malignancy diagnosed as a result of work-up for anemia or bleeding: No, (%)” value (“Malignancy diagnosed as a result … No, (%)” for short) in data set [1] (On-Treatment Study Period), in data set [1] (setting [5]) and in data set [1] (Treatment+30 Days Study Period) were “(1.4) %”, “(2.2) %” and “(1.8) %”, respectively. Further, the “Malignancy diagnosed as a result of work-up for anemia or bleeding: Yes, (%)” value (shortened to “Malignancy diagnosed as a result … Yes, (%)”) in data set [1] (On-Treatment Study Period) is reported as “(0.2) %”; in data set [1] (setting [5]) it was “(0.6) %”; in data set [1] (Treatment+30 Days Study Period), “(0.6) %”. In addition, the “Solid Tumor, (%)” value was “(1.5) %” in data set [1] (On-Treatment Study Period), “(2.7) %” in data set [1] (setting [5]) and “(2.3) %” in data set [1] (Treatment+30 Days Study Period). Moreover, the “All Subjects with a Malignancy Event, HR” value in data set [1] (On-Treatment Study Period) came out at 0.73; in data set [1] (Overall Study Period) it was 0.85; in data set [1] (Treatment+30 Days Study Period), 0.84. Besides, the oral bioavailability result in data set [2], in data set [3] and in data set [4] (human subjects) was “orally bioavailable” throughout. Moreover, the safety and tolerability entry in data set [4] (doses of up to 90-mg per day) is “generally safe and well tolerated”.
On to `CC(=O)CC(c1ccccc1)c1c(O)c2ccccc2oc1=O` (stereo not drawn) [Warfarin, warfarin, reference compound], for which, in data set [1] (On-Treatment Study Period), the “All Subjects … (%)” value turned out to be 2.2%; the “Leukemia, Lymphoma … (%)” value is 0.1%; the “Malignancy diagnosed as a result … No, (%)” value amounted to 1.9%; the “Malignancy diagnosed as a result … Yes, (%)” value turned out to be 0.2%. The “Solid Tumor, (%)” value in data set [1] (On-Treatment Study Period) is given as 2.0%. Further, in data set [1] (setting [5]), the “All Subjects … (%)” value amounted to 3.3%; the “Leukemia, Lymphoma … (%)” value is listed as 0.2%; the “Malignancy diagnosed as a result … No, (%)” value is 2.8%; the “Malignancy diagnosed as a result … Yes, (%)” value worked out at 0.5%. Further, the “Solid Tumor, (%)” value in data set [1] (setting [5]) is listed as 3.1%. Besides, in data set [1] (Treatment+30 Days Study Period), the “All Subjects … (%)” value is 2.9%; the “Leukemia, Lymphoma … (%)” value amounted to 0.2%; the “Malignancy diagnosed as a result … No, (%)” value was determined as 2.4%; the “Malignancy diagnosed as a result … Yes, (%)” value is on record as 0.5%. The “Solid Tumor, (%)” value in data set [1] (Treatment+30 Days Study Period) is on record as 2.6%.
